Reference: patent publication US20230257385A1, “SALT AND SOLID FORMS OF TABERNANTHALOG” (priority 2021, published 2023)
Structures can show the parent of a compound that is named as a salt.

What was measured:
Type in all cases: physicochemical
[1] = SIF buffer solubility panel (FaSSIF, FeSSIF, FaSSGF)
[2] = Dynamic vapour sorption (DVS) of selected salts (Example 8)
In short: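 Sorption/desorption isotherms on 20–50 mg sample at 25°C after 60 min at 0% RH: 5% steps to 30%, 10% steps to 90%, then reverse. Equilibrium criterion dm/dt 0.002%/min; kinetic and isotherm curves derived.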

[3] = Examination of variability of fusion temperature of sorbate Form A (DSC); details: listed as Experiment 13-Sample C1
Method: The factors that were assessed to explain the observed variability in fusion temperature found amongst Form A samples were sample loading, preferred orientation and particle size/homogeneity (Table 271). A weak relationship between sample loading and melt onset was observed, the remainder of the factors examined, appeared to be unrelated.
DSC data were collected from 25 to 220C at a scan rate of at 10° C. min^−1 (Table 292).

[4] = Stability panel of salts, open vial / double-bagged vial, t=5 d and 10 d; details: storage conditions not given
Description: FIG. 797 depicts the overlay of, from top to bottom, XRPD of Experiment 1-Sample A2 (Form A), Experiment 10-Sample A1 (5 days, open vial Pattern #2), Experiment 10-Sample A2 (10 days, open vial, Pattern #2), Experiment 10-Sample B1 (5 days, double-bagged vial, Form A) and Experiment 10-Sample B2 (10 days, double-bagged vial, Pattern #2).

[5] = DSC 25-220° C. at 10° C. min^−1, batches of sorbate salt Form A
[6] = DSC 25 to 220C at 10° C. min−1, tabernanthalog sorbate Form A samples

Structure (SMILES): COc1ccc2c3c([nH]c2c1)CCN(C)CC3 [tabernanthalog sorbate salt]
- solubility in FaSSGF ([1]; FaSSGF, 37° C., up to 24 h (timepoints t=0, 1 h, 3 h, 6 h, 24 h)): remained suspended
- disproportionation in the SIF buffers ([1]; SIF buffers): no observed disproportionation
- solubility in the SIF buffers ([1]; SIF buffers overall): highly soluble in the SIF buffers (apart from FaSSGF)
- DVS sorption/desorption isotherm ([2]; 0 to 90 to 0% RH, 25° C., dm/dt 0.002%/min): slightly hygroscopic up to 80% RH
- DVS 0 to 90 to 0% RH (dm/dt <0.002%), mass change ([2]; desorption, 0.0% RH): −0.06%
- DVS mass change ([2]; desorption, 0.0% RH, listed as tabernanthalog sorbate salt (Form A)): 0.06%
- DVS mass change ([2]; desorption, 0.0% RH, listed as tabernanthalog sorbate salt (Form I)): −0.06%
- DVS 0 to 90 to 0% RH (dm/dt <0.002%), mass change ([2]; desorption, 5.0% RH): −0.05%
- DVS mass change ([2]; desorption, 5.0% RH, listed as tabernanthalog sorbate salt (Form A)): 0.05%
- DVS mass change ([2]; desorption, 5.0% RH, listed as tabernanthalog sorbate salt (Form I)): −0.05%
- DVS 0 to 90 to 0% RH (dm/dt <0.002%), mass change ([2]; desorption, 10.0% RH): −0.04%
- DVS mass change ([2]; desorption, 10.0% RH, listed as tabernanthalog sorbate salt (Form A)): 0.04%
- DVS mass change ([2]; desorption, 10.0% RH, listed as tabernanthalog sorbate salt (Form I)): −0.04%
- DVS 0 to 90 to 0% RH (dm/dt <0.002%), mass change ([2]; desorption, 15.0% RH): −0.03%
- DVS mass change ([2]; desorption, 15.0% RH, listed as tabernanthalog sorbate salt (Form A)): 0.03%
- DVS mass change ([2]; desorption, 15.0% RH, listed as tabernanthalog sorbate salt (Form I)): −0.03%
- DVS 0 to 90 to 0% RH (dm/dt <0.002%), mass change ([2]; desorption, 20.0% RH): −0.02%
- DVS mass change ([2]; desorption, 20.0% RH, listed as tabernanthalog sorbate salt (Form A)): 0.02%
- DVS mass change ([2]; desorption, 20.0% RH, listed as tabernanthalog sorbate salt (Form I)): −0.02%
- DVS 0 to 90 to 0% RH (dm/dt <0.002%), mass change ([2]; desorption, 25.0% RH): −0.007%
- DVS mass change ([2]; desorption, 25.0% RH, listed as tabernanthalog sorbate salt (Form A)): 0.00%
- DVS mass change ([2]; desorption, 25.0% RH, listed as tabernanthalog sorbate salt (Form I)): −0.007%
- DVS 0 to 90 to 0% RH (dm/dt <0.002%), mass change ([2]; desorption, 30.0% RH): 0.00%
- DVS mass change ([2]; desorption, 30.0% RH): 0.00%
- DVS 0 to 90 to 0% RH (dm/dt <0.002%), mass change ([2]; desorption, 40.0% RH): 0.03%
- DVS mass change ([2]; desorption, 40.0% RH): 0.03%
- DVS 0 to 90 to 0% RH (dm/dt <0.002%), mass change ([2]; desorption, 50.0% RH): 0.06%
- DVS mass change ([2]; desorption, 50.0% RH): 0.06%
- DVS 0 to 90 to 0% RH (dm/dt <0.002%), mass change ([2]; desorption, 60.0% RH): 0.18%
- DVS mass change ([2]; desorption, 60.0% RH): 0.18%
- DVS 0 to 90 to 0% RH (dm/dt <0.002%), mass change ([2]; desorption, 70.0% RH): 0.30%
- DVS mass change ([2]; desorption, 70.0% RH): 0.30%
- DVS 0 to 90 to 0% RH (dm/dt <0.002%), mass change ([2]; desorption, 80.0% RH): 0.48%
- DVS mass change ([2]; desorption, 80.0% RH): 0.48%
- DVS 0 to 90 to 0% RH (dm/dt <0.002%), mass change ([2]; desorption, 90.0% RH): 0.98%
- DVS mass change ([2]; desorption, 90.0% RH): 0.98%
- DVS 0 to 90 to 0% RH (dm/dt <0.002%), mass change ([2]; sorption, 0.0% RH): 0.00%
- DVS mass change ([2]; sorption, 0.0% RH, dm/dt<0.002%): 0.00%
- DVS 0 to 90 to 0% RH (dm/dt <0.002%), mass change ([2]; sorption, 5.0% RH): 0.0%
- DVS mass change ([2]; sorption, 5.0% RH): 0.0%
- DVS 0 to 90 to 0% RH (dm/dt <0.002%), mass change ([2]; sorption, 10.0% RH): 0.01%
- DVS mass change ([2]; sorption, 10.0% RH): 0.01%
- DVS 0 to 90 to 0% RH (dm/dt <0.002%), mass change ([2]; sorption, 15.0% RH): 0.01%
- DVS mass change ([2]; sorption, 15.0% RH): 0.01%
- DVS 0 to 90 to 0% RH (dm/dt <0.002%), mass change ([2]; sorption, 20.0% RH): 0.02%
- DVS mass change ([2]; sorption, 20.0% RH): 0.02%
- DVS 0 to 90 to 0% RH (dm/dt <0.002%), mass change ([2]; sorption, 25.0% RH): 0.03%
- DVS mass change ([2]; sorption, 25.0% RH): 0.03%
- DVS 0 to 90 to 0% RH (dm/dt <0.002%), mass change ([2]; sorption, 30.0% RH): 0.03%
- DVS mass change ([2]; sorption, 30.0% RH): 0.03%
- DVS 0 to 90 to 0% RH (dm/dt <0.002%), mass change ([2]; sorption, 40.0% RH): 0.05%
- DVS mass change ([2]; sorption, 40.0% RH): 0.05%
- DVS 0 to 90 to 0% RH (dm/dt <0.002%), mass change ([2]; sorption, 50.0% RH): 0.07%
- DVS mass change ([2]; sorption, 50.0% RH): 0.07%
- DVS 0 to 90 to 0% RH (dm/dt <0.002%), mass change ([2]; sorption, 60.0% RH): 0.10%
- DVS mass change ([2]; sorption, 60.0% RH): 0.10%
- DVS 0 to 90 to 0% RH (dm/dt <0.002%), mass change ([2]; sorption, 70.0% RH): 0.14%
- DVS mass change ([2]; sorption, 70.0% RH): 0.14%
- DVS 0 to 90 to 0% RH (dm/dt <0.002%), mass change ([2]; sorption, 80.0% RH): 0.21%
- DVS mass change ([2]; sorption, 80.0% RH): 0.21%
- DVS 0 to 90 to 0% RH (dm/dt <0.002%), mass change ([2]; sorption, 90.0% RH): 0.98%
- DVS mass change ([2]; sorption, 90.0% RH): 0.98%
- Endset [3, 5]: 144.5 °C
- melt enthalpy [3, 5]: −105.8 Jg^−1
- melt onset [3, 5]: 139.9 °C
- peak [3, 5]: 142.5 °C
- melt enthalpy [3, 6]: −105.78 Jg-1
- melt onset [3, 6]: 139.87 °C
- Endset ([3]; DSC melt endset, 25 to 220C at 10° C. min−1, tabernanthalog sorbate Form A samples): 144.46 °C
- peak ([3]; DSC melt peak, 25 to 220C at 10° C. min−1, tabernanthalog sorbate Form A samples): 142.50 °C
- CP after stability storage ([4]; end value (minimal reduction in CP)): 99.70 % area
- CP before stability storage ([4]; starting value): 99.76 % area
